These molecules were tested on C57BL/6 mice (assay: animal or person). Details: Mus musculus, sc, 0.5 h, s.c. administration, 30 min, 55° C. water, read-out: ED50 (mg/kg) at 30 min on C57BL/6 mice in Warm-water Tail-flick Test.
Type: in vivo

SMILES	ED50
CCOCC1(CCc2ccccc2)CCN(C(CC)c2ccc(C)nc2)C1 (centres unmarked) [Compound 298, 5-(1-(3-(ethoxymethyl)-3-phenethylpyrrolidin-1-yl)propyl)-2-methylpyridine]	< 10 mg/kg
CCOCC1(CCc2cc(C)cs2)CCN(Cc2ccc(C)nc2)CC1 [Compound 299, 5-((4-(ethoxymethyl)-4-(2-(4-methylthiophen-2-yl)ethyl)piperidin-1-yl)methyl)-2-methylpyridine]	< 10 mg/kg
CCOCC1(CCc2ccc(F)s2)CCN(Cc2ccc(C)nc2)C1 (centres unmarked) [Compound 300, 5-((3-(ethoxymethyl)-3-(2-(5-fluorothiophen-2-yl)ethyl)pyrrolidin-1-yl)methyl)-2-methylpyridine]	< 10 mg/kg
CCOCC1(CCc2cc3ccccc3s2)CCN(Cc2ccc(C)nc2)C1 (centres unmarked) [Compound 301, 5-((3-(2-(benzo[b]thiophen-2-yl)ethyl)-3-(ethoxy-methyl)pyrrolidin-1-yl)methyl)-2-methylpyridine]	> 10 mg/kg
CCOCC1(CCc2csc3ccccc23)CCN(Cc2ccc(C)nc2)C1 (centres unmarked) [Compound 302, 5-((3-(2-(benzo[b]thiophen-3-yl)ethyl)-3-(ethoxy-methyl)pyrrolidin-1-yl)methyl)-2-methylpyridine]	< 10 mg/kg
CCOC[C@@]1(CCc2ccccc2)CCN(C(C)c2ccc(C)nc2)C1.Cl (stereo partly drawn) [Compound 303, 5-(1-((S)-3-(ethoxymethyl)-3-phenethylpyrrolidin-1-yl)ethyl)-2-methylpyridine HCl]	< 10 mg/kg
CCOCC1(CCc2ccc(C)s2)CCN(Cc2ccc(C)nc2)CC1 [Compound 304, 5-((4-(ethoxymethyl)-4-(2-(5-methylthiophen-2-yl)ethyl)piperidin-1-yl)methyl)-2-methylpyridine]	< 10 mg/kg
CCOCC1(CCc2ccccc2)CCN(C(C)c2ccc(C)nc2C)C1 (centres unmarked) [Compound 305, 3-(1-(3-(ethoxymethyl)-3-phenethylpyrrolidin-1-yl)ethyl)-2,6-dimethylpyridine]	< 10 mg/kg
CCOCC1(CCc2ccsc2)CCN(Cc2ccc(C)nc2C)C1 (centres unmarked) [Compound 306, 3-((3-(ethoxymethyl)-3-(2-(thiophen-3-yl)ethyl)pyrrolidin-1-yl)methyl)-2,6-dimethylpyridine]	< 10 mg/kg
CCOC[C@@]1(CCc2ccccc2)CCN(Cc2ccc(C)nc2C)C1 [Compound 307, (S)-3-((3-(ethoxymethyl)-3-phenethylpyrrolidin-1-yl)methyl)-2,6-dimethylpyridine]	< 10 mg/kg
CCOCC1(CCc2nc3ccccc3o2)CCN(Cc2cccnc2)C1 (centres unmarked) [Compound 308, 2-(2-(3-(ethoxymethyl)-1-(pyridin-3-ylmethyl)pyrrolidin-3-yl)ethyl)benzo[d]oxazole]	> 10 mg/kg
CCOCC1(CCc2csc3ccccc23)CCN(Cc2cccnc2)C1 (centres unmarked) [Compound 309, 3-((3-(2-(benzo[b]thiophen-3-yl)ethyl)-3-(ethoxy-methyl)pyrrolidin-1-yl)methyl)pyridine]	> 10 mg/kg
Cc1ccc(CN2CCC(CCc3ccccc3)(c3ccccn3)CC2)c(C)n1 [Compound 310, 2,6-dimethyl-3-((4-phenethyl-4-(pyridin-2-yl)piperidin-1-yl)methyl)pyridine]	< 10 mg/kg
CCOCC1(CCc2ccc(F)cc2)CCN(Cc2ccc(C)nc2C)C1 (centres unmarked) [Compound 311, 3-((3-(ethoxymethyl)-3-(4-fluoro-phenethyl)pyrrolidin-1-yl)methyl)-2,6-dimethylpyridine]	< 10 mg/kg
CCOCC1(CCc2cc(C)sc2C)CCN(Cc2cnn(C)c2)C1 (centres unmarked) [Compound 312, 4-((3-(2-(2,5-dimethylthiophen-3-yl)ethyl)-3-(ethoxy-methyl)pyrrolidin-1-yl)methyl)-1-methyl-1H-pyrazole]	< 10 mg/kg
CCOCC1(c2ccccn2)CCN(Cc2ccc(C)nc2C)C1 (centres unmarked) [Compound 313, 3-((3-(ethoxymethyl)-3-(pyridin-2-yl)pyrrolidin-1-yl)methyl)-2,6-dimethylpyridine]	> 10 mg/kg
COCCC1(c2ccccn2)CCN(Cc2ccc(C)nc2C)C1 (centres unmarked) [Compound 314, 3-((3-(2-methoxyethyl)-3-(pyridin-2-yl)pyrrolidin-1-yl)methyl)-2,6-dimethylpyridine]	> 10 mg/kg
